Experimental data published in paper PMC11677243, “Target protein identification in live cells and organisms with a non-diffusive proximity tagging system” (eLife, 2024).

Legend:
[1] = target: T1, TOM1L2 (Homo sapiens, UniProt Q6ZVM7); assay: MST binding to Cy5-labeled TOM1L2; settings: n = 2
T1 construct: 6xHis (pET28a, Ni column purification); made in house; host or cells: E. coli BL21(DE3)
T1 sequence (Q6ZVM7 1-507): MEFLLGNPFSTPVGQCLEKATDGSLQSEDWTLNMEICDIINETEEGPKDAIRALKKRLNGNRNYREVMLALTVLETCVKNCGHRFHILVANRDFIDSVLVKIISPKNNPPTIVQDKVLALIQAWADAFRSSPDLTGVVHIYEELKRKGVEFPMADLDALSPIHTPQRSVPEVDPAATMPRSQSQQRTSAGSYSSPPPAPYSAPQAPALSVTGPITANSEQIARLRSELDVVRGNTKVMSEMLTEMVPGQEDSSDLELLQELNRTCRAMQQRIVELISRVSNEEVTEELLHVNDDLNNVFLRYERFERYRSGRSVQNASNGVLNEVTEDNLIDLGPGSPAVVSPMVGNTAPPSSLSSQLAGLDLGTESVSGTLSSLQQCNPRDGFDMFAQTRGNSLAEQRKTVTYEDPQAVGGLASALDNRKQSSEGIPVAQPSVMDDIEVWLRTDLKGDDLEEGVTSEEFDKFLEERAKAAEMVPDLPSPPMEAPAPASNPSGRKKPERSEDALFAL
Method: (§1) SEPHS2-2xV5, VPS37C-2xV5, VPS29, TRAPPC3, TOM1, and TOM1L2 were labeled using Cy5-NHS ester (A100932, Sangon Biotech, China). Briefly, each target protein was diluted to 10 µM in PBS and underwent buffer exchange with PBS using a Zeba spin desalting column (89882, Thermo Scientific, USA) to remove Tris. The labeling reaction consisted of 80 µl of 10 µM target protein, 10 µl of 1 M NaHCO3 pH 8.3, and 10 µl of 1 mM Cy5-NHS ester in DMSO, and was incubated at 4°C overnight. The next day, unlabeled dyes were removed using Zeba spin desalting columns, and labeling efficiency was assessed by measuring the concentration of Cy5 with a UV-Vis spectrophotometer (SMA5000, Merinton, China). […] Cy5-labeled SEPHS2-2xV5 (5 nM), VPS37C-2xV5 (5 nM), VPS29 (10 nM), TRAPPC3 (10 nM), TOM1 (10 nM), or TOM1L2 (10 nM) was mixed with the corresponding diluted compound in a total volume of 20 µl, and then loaded into Monolith premium capillaries (MO-K025, NanoTemper, Germany). Binding affinity analysis was performed using a NanoTemper Monolith NT.115 instrument (NanoTemper). Kd values were obtained using MO.Affinity Analysis 2.3.0 software (NanoTemper).

[2] = target: T2, VPS37C (Homo sapiens, UniProt A5D8V6); assay: MST binding to Cy5-labeled VPS37C; settings: purified recombinant VPS37C; n = 2, mean ± s.d.
T2 construct: expressed in transfected cells; host or cells: HEK293T
Method: as §1

[3] = target: T2, VPS37C; assay: Cellular thermal shift assay (CETSA) on cell lysates; assay type: binding; settings: 20 µM compound, 47°C to 59°C
Method: […] cells were cultured on a 100 mm dish and transfected with 10 µg of VPS37C-2xV5 plasmid. Forty-eight hours later, the cells were washed twice with ice-cold PBS, harvested in 1 ml of PBS buffer supplemented with 0.4% NP-40 and 0.5×protease inhibitor cocktail, incubated for 15 min with gently rotation at room temperature, and centrifuged at maximum speed for 15 min at 4°C. The supernatant was transferred to a new 1.5 ml microtube, and protein concentration was determined by a BCA assay. Cell lysates were diluted to a concentration of 2 mg/ml and divided into two groups. The drug group was treated with 20 µM of DC660 or HCQ, while the control group received the same amount of DMSO. After a 20 min incubation at room temperature, cell lysates were gently mixed and aliquoted into PCR tubes with 40 µl each, then subjected to heat treatment for 4 min, ranging from 47°C to 59°C in 2°C increments, and cooled to room temperature on a T100 thermal cycler (Bio-Rad, USA). Subsequently, cell lysates were transferred to 1.5 ml microtubes and centrifuged at maximum speed for 20 min at 4°C to precipitate unstable insoluble proteins. The supernatant was transferred to a new 1.5 ml microtube, and 10 µl of 5×SDS sample buffer was added to each tube. Samples were boiled at 95°C for 5 min and processed for western blot analysis.

[4] = target: T3, VPS29 (Homo sapiens, UniProt Q9UBQ0); assay: MST binding to Cy5-labeled VPS29
T3 construct: 6xHis (pET28a, Ni column purification); made in house; host or cells: E. coli BL21(DE3)
Method: as §1

[5] = target: T4, TRAPPC3 (Homo sapiens, UniProt O43617); assay: MST binding to Cy5-labeled TRAPPC3; settings: n = 2
T4 construct: 6xHis (pET28a, Ni column purification); made in house; host or cells: E. coli BL21(DE3)
Method: as §1

[6] = target: T5, TOM1 (Homo sapiens, UniProt O60784); assay: MST binding to Cy5-labeled TOM1; settings: n = 2
T5 construct: 6xHis (pET28a, Ni column purification); made in house; host or cells: E. coli BL21(DE3)
Method: as §1

[7] = target: T6, VPS37C-V5 (Homo sapiens, UniProt A5D8V6); assay: POST-IT labeling and streptavidin pulldown of VPS37C-V5 in HEK293T cells; assay type: cell-based; settings: 200 nM DC661-H1 with 2 µM competitor
T6 construct: expressed in transfected cells; host or cells: HEK293T

[8] = system: LC3-II; assay: Autophagy inhibition by LC3-II western blot in A375 cells; assay type: cell-based, Homo sapiens; settings: 12 hr
Source text: (§2) Cells transfected and/or treated with different compounds were harvested at the end of treatment.

[9] = system: LC3-II; assay: Autophagy inhibition by LC3-II western blot in HEK293T cells; assay type: cell-based, Homo sapiens; settings: 12 hr
Source text: as §2

[10] = target: SRC(247-536)-2xV5 (Homo sapiens, UniProt P12931); settings: 500 nM DH1, N-terminal Halo^8KR, 37°C, 30 min
[11] = target: T7, Myc-Halo^8KR-PafA (Rhodococcus rhodochrous, UniProt P0A3G2, A155T/A167V/A172T/A224E/C128F/C176G/D78G/E160R/E257R/H272N/K117R/K124R/K175M/K195N/K236R/K263R/K71R/K74R/L47V/L88M/N227D/P291S/S58T/T264A/Y273L/Y87F); assay: Halo-biotin competition assay (western blot, streptavidin-HRP); assay type: binding, Corynebacterium glutamicum; settings: 2 μM DH1 preincubation, 1 μM Myc-Halo^8KR-PafA, then 5 μM Halo-Biotin
T7 construct: 6xHis (Ni column purification); made in house; host or cells: E. coli BL21(DE3)
Method: Figure 2. Optimized Halo-PafA and Pup substrates efficiently promote pupylation in vitro in a proximity-dependent manner. […] (B) Comparison of proximity-tagging by different Halo-PafA derivatives on in vitro pupylation. (C) Comparison of different Pup substrates on in vitro pupylation with 500 nM DH1. […] (B–D) All reactions were conducted with 1 μM of a Halo-PafA derivative, 10 μM of one of the different Pup substrates, and 0.5 μM of a purified short SRC with a 2xV5 tag, SRC(247-536)-2xV5, at 37°C for 30 min. Pupylation levels of SRC were assessed by immunoblot (IB) using an anti-V5 antibody. Figure 2—source data 1. […] Figure 2—source data 2. […] Figure 2—figure supplement 1. Synthesis of dasatinib-Halo derivative 1 (DH1). Reagents and conditions: (a) HATU, DIPEA, DMF, RT, 2 hr; (b) NaOH, THF, H2O, RT, 2 hr. RT, room temperature. [drawing 4] Figure 2—figure supplement 2. Representative spectra of DH1. (A) ^1H NMR; (B) HRMS. [drawing 5] Figure 2—figure supplement 3. […] (A) Fluorescence polarization (FP) assay using 2 nM of HaloTag Alexa Fluor-488 (Halo-AF488) at 25°C. n = 2. […] (B) Western blot analysis for the Halo-Biotin competition assay. […] Levels of bound Halo-Biotin were assessed by streptavidin-HRP. (C) Quantitative analysis of western blot results shown in (B). n = 5. […] Pupylation levels of SRC were assessed by immunoblot (IB) using an anti-V5 antibody. […]

[12] = system: SRC; assay: In cellulo pupylation and pulldown assay of SRC in HEK293T cells; assay type: cell-based, Homo sapiens; settings: 500 nM DH1
[13] = target: HA-FKBP-EGFP (Homo sapiens, UniProt P42345+P62942); assay: Rapamycin-induced pupylation of FKBP-EGFP by FRB-mKate2-PafA in HEK293T cells; assay type: cell-based; settings: 100 nM rapamycin
HA-FKBP-EGFP, sequence (P62942 whole entry): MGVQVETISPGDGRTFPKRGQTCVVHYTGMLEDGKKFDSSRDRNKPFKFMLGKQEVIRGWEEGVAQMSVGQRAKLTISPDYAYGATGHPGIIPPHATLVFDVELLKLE
HA-FKBP-EGFP, sequence (P42345 2012-2144 limits assumed): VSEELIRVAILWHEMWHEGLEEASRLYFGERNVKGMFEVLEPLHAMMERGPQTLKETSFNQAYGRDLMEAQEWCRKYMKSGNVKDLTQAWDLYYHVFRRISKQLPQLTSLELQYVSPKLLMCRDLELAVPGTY

T2 sequence (A5D8V6 whole entry): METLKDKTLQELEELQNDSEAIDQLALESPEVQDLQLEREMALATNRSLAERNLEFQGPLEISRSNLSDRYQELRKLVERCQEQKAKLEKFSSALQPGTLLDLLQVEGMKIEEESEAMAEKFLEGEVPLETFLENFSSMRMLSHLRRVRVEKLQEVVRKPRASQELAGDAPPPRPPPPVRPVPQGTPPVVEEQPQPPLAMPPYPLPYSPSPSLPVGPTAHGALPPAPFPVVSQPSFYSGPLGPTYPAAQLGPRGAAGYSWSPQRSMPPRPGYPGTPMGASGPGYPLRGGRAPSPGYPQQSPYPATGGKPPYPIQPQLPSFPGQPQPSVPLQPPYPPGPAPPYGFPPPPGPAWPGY
T4 sequence (O43617 whole entry): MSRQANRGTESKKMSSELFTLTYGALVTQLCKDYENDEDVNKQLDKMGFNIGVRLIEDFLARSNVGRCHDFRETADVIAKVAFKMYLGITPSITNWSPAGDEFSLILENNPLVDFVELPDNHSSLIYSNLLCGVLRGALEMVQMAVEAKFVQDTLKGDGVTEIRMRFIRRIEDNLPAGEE
T6 sequence (A5D8V6 whole entry): as the sequence (A5D8V6 whole entry) above
T5 sequence (O60784 whole entry): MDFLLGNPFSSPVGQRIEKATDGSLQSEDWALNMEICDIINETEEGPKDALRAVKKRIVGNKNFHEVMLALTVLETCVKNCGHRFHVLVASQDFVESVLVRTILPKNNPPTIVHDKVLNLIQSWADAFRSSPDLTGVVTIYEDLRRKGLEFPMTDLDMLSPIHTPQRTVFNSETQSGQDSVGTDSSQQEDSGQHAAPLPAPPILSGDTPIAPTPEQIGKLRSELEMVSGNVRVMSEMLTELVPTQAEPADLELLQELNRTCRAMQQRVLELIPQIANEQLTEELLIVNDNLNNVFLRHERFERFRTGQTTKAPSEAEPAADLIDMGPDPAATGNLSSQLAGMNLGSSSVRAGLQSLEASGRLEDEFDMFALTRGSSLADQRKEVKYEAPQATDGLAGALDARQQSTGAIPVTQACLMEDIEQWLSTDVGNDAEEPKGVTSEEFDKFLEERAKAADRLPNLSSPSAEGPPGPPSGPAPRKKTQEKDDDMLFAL
T7 sequence (P0A3G2 other isoform, or with tags, fused parts or gaps with the stated changes): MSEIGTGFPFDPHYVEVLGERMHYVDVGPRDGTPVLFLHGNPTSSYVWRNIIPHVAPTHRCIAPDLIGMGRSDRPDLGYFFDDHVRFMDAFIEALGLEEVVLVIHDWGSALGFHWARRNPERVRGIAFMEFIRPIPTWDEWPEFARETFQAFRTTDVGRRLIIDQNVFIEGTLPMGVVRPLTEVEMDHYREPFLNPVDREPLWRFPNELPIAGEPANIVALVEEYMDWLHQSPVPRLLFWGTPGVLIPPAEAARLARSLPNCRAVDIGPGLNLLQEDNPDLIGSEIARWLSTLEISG
SRC(247-536)-2xV5, sequence (P12931 247-536): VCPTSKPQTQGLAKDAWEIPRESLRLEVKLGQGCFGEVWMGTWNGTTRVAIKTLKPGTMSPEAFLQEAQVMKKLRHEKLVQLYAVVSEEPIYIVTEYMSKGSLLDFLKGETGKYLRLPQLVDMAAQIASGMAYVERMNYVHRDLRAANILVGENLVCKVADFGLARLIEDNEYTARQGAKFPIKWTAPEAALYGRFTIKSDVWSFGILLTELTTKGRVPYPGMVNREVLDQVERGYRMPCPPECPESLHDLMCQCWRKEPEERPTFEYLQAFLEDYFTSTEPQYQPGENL

Row | Compound | binding to TOM1L2 (MST) [1] | Kd [2] | thermal stability of VPS37C versus DMSO (CETSA) [3] | Kd ([4]; n = 2, mean ± s.d.) | binding to TRAPPC3 (MST) [5] | binding to TOM1 (MST) [6] | VPS37C binding to DC661-H1 under competition [7] | levels of LC3-II band (autophagy inhibition) [8] | levels of LC3-II band (autophagy inhibition) [9] | pupylation of purified recombinant short SRC by Halo^8KR-PafA [10] | time for efficient linking to Halo^8KR-PafA [11] | POST-IT labeling of exogenous and endogenous SRC [12] | pupylation of FKBP-EGFP by PafA fused with FRB [13] | binding to VPS29 (MST dose-response) ([4]; n = 2)
1 | Clc1ccc2c(NCCCCCCNCCCCCCNc3ccnc4cc(Cl)ccc34)ccnc2c1 [DC660, N^1-(7-Chloroquinolin-4-yl)-N^6-(6-((7-chloroquinolin-4-yl)amino)hexyl)hexane-1,6-diamine] | appeared to bind well | 0.0215 ± 0.0098 µM | more stable | 25 ± 11.7 µM | appeared to bind well | appeared to bind well | almost completely abolished | robust LC3-II bands | robust LC3-II bands |  |  |  |  | 
2 | Cc1nc(Nc2ncc(C(=O)Nc3c(C)cccc3Cl)s2)cc(N2CCN(CCNC(=O)CCCCC(=O)NCCOCCOCCOCCOCCCCCCCl)CC2)n1 [DH1, N1-(2-(4-(6-((5-((2-Chloro-6-methylphenyl)carbamoyl)thiazol-2-yl)amino)-2-methylpyrimidin-4-yl)piperazin-1-yl)ethyl)-N6-(18-chloro-3,6,9,12-tetraoxaoctadecyl)adipamide] |  |  |  |  |  |  |  |  |  | robust pupylation | ≤ 15 min | significant labeling activity |  | 
3 | CO[C@H]1C[C@@H]2CC[C@@H](C)[C@@](O)(O2)C(=O)C(=O)N2CCCC[C@H]2C(=O)O[C@H]([C@H](C)C[C@@H]2CC[C@@H](O)[C@H](OC)C2)CC(=O)[C@H](C)/C=C(\C)[C@@H](O)[C@@H](OC)C(=O)[C@H](C)C[C@H](C)/C=C/C=C/C=C/1C [rapamycin] |  |  |  |  |  |  |  |  |  |  |  |  | robust pupylation | 
4 | CCN(CCO)CCCC(C)Nc1ccnc2cc(Cl)ccc12 (centres unmarked) [HCQ, hydroxychloroquine, reference compound] | did not show detectable binding | 16.9 ± 8.7 µM | more stable |  | did not show detectable binding | did not show detectable binding | almost completely abolished |  |  |  |  |  |  | no binding
